The text below walks through data of ChEMBL document CHEMBL3301361, “Experimental in vitro DMPK and physicochemical data on a set of publicly disclosed compounds”.

A short description of series [1]: in vitro. The following applies: human.
The nature of series [2]: in vitro. The settings on record: hepatocytes.
Series [3] can be described thus: physchem. The following applies: octan-1-ol/water.

The microsomal CLint is the capacity of the preparation to metabolise the compound, expressed as a volume cleared per time. A lower microsomal CLint goes with greater metabolic stability. One may read the hepatocyte CLint as the rate of metabolic loss divided by the concentration. Read a low hepatocyte CLint as greater metabolic stability. The term logD denotes the decadic logarithm of the distribution of all forms, ionised or not, between an organic phase and buffer at a given pH. Turning to `CNS(=O)(=O)Cc1ccc2[nH]cc(CCN(C)C)c2c1`, the microsomal CLint in series [1] (liver microsomes) was less than 3 µL/min/mg. The hepatocyte CLint in series [2] was determined as 8 µL/min/1e6 cells. The compound further registered a pH-dependent lipophilicity (logD) in series [3] (pH 7.4, LogD7.4) of -0.96.
For `CCOc1ccc(CCNCCCSCCNC[C@H](O)c2ccc(O)c3[nH]c(=O)sc23)cc1` the same measures were 75 µL/min/mg, 8 µL/min/1e6 cells and 0.41.
Consider `COc1ccc(CNC(=O)CSc2nc3cccnc3s2)cc1`, for which the microsomal CLint in series [1] (microsomes) is greater than 150 µL/min/mg. The hepatocyte CLint in series [2] was greater than 150 µL/min/1e6 cells. Also, the logD in series [3] (pH 7.4, LogD7.4) worked out at 2.5.
In series [1] (liver microsomes), `O=c1[nH]c2c(O)ccc([C@@H](O)CNCCc3cccc(CNCc4ccccc4Cl)c3)c2s1` displayed a microsomal CLint of 47 µL/min/mg. In addition, the intrinsic clearance (hepatocyte CLint) in series [2] worked out at 60 µL/min/1e6 cells. The pH-dependent lipophilicity (logD) in series [3] (pH 7.4, LogD7.4) amounted to 1.85.
For `Cc1nc2ncnn2c(O)c1CCOC(=O)c1c(F)cccc1F` the same measures were greater than 150 µL/min/mg, 64.3 µL/min/1e6 cells and 0.16.
In series [1] (microsomes), `O=C(O)COc1ccc(C(=O)c2cccs2)c(Cl)c1Cl` displayed a microsomal CLint of 82 µL/min/mg. This compound also gave an intrinsic clearance (hepatocyte CLint) in series [2] of 61 µL/min/1e6 cells. The same compound had a logD in series [3] (pH 7.4, LogD7.4) of -0.84.
Consider `Nc1c(C(=O)c2cccc(OC[C@@H](O)CO)c2)cnn1-c1ccc(F)cc1` [RO-3201195], for which the microsomal CLint in series [1] (microsomes) is less than 3 µL/min/mg. In series [2], this compound registered a hepatocyte CLint of less than 3 µL/min/1e6 cells. Further, the logD in series [3] (pH 7.4, LogD7.4) came out at 1.91.
As for `O=c1[nH]c2c(O)ccc([C@@H](O)CNCCc3ccc(CNCCc4ccccc4F)cc3)c2s1`, the intrinsic metabolic clearance (microsomal CLint) in series [1] (microsomes) was determined as 22 µL/min/mg. The compound also displayed an intrinsic metabolic clearance (hepatocyte CLint) in series [2] of 14 µL/min/1e6 cells. The logD in series [3] (pH 7.4, LogD7.4) came to 1.3.
Take `Cc1cc2cc(C)c3nnc(SCC(=O)N4CCN(C(=O)c5ccco5)CC4)n3c2cc1C`: in series [1] (liver microsomes), the intrinsic clearance (microsomal CLint) is greater than 150 µL/min/mg. The intrinsic metabolic clearance (hepatocyte CLint) in series [2] turned out to be 57.5 µL/min/1e6 cells. This compound also returned a logD in series [3] (pH 7.4, LogD7.4) of 2.8.
In the case of `COc1c(Nc2ccc(S(C)(=O)=O)nc2C)ncnc1OC1CCN(C(=O)OC(C)C)CC1` [ADP-597], in series [1] (microsomes), the microsomal CLint worked out at 19.9 µL/min/mg. The compound further displayed a hepatocyte CLint in series [2] of 6.31 µL/min/1e6 cells. In series [3] (pH 7.4, LogD7.4), this compound showed a logD of 2.4.
Take `CCOC(=O)c1c(-c2ccccc2)nc2cc(C)ccn12`: in series [1] (microsomes), the intrinsic clearance (microsomal CLint) is greater than 150 µL/min/mg. For the same compound, the intrinsic metabolic clearance (hepatocyte CLint) in series [2] amounted to 148 µL/min/1e6 cells. The logD in series [3] (pH 7.4) is 3.8.
With `O=C1NC(=O)/C(=C/c2ccc3c(c2)OC(F)(F)O3)S1`, the microsomal CLint in series [1] (liver microsomes) is 19.5 µL/min/mg. In addition, the intrinsic metabolic clearance (hepatocyte CLint) in series [2] worked out at 4.17 µL/min/1e6 cells. In series [3] (pH 7.4, LogD7.4), this compound showed a logD of 2.8.
For `Cc1cc(CCCOc2c(C)cc(-c3noc(C(F)(F)F)n3)cc2C)on1` [PLECONARIL] the same measures were 14.4 µL/min/mg, 13.5 µL/min/1e6 cells and 3.63.
For `COc1ccc2nc(C)cc(OCC(=O)NCc3ccccc3)c2c1` the same measures were greater than 150 µL/min/mg, 120 µL/min/1e6 cells and 3.2.
The like results for `N[C@@H]1CCCN(c2c(/C=C3\SC(=O)NC3=O)cccc2-c2ccncc2)C1` were, in that order, 8.51 µL/min/mg, 8.91 µL/min/1e6 cells and 1.56.
In series [1] (liver microsomes), `CN(CCNC[C@H](O)c1ccc(O)c2[nH]c(=O)sc12)C(=O)CCOCCc1ccccc1` registered a microsomal CLint of 35 µL/min/mg. The hepatocyte CLint in series [2] turned out to be 43 µL/min/1e6 cells. The same compound yielded a log distribution coefficient (logD) in series [3] (pH 7.4, LogD7.4) of 1.21.
The like results for `O=C(Nc1cccc(CCO)c1)c1cc2cc(Cl)ccc2[nH]1` were, in that order, 10 µL/min/mg, greater than 150 µL/min/1e6 cells and 3.83.
On to `COc1nc(N)nc2c1ncn2[C@@H]1O[C@H](CO)[C@@H](O)[C@H]1O`, for which, in series [1] (microsomes), the microsomal CLint worked out at 42.7 µL/min/mg. In series [2], this compound returned a hepatocyte CLint of 10.5 µL/min/1e6 cells. For the same compound, the logD in series [3] (pH 7.4) was -0.58.
In the case of `O=c1[nH]c2c(O)ccc([C@@H](O)CNCCOc3cccc(CNCCc4ccccc4F)c3)c2s1`, the intrinsic clearance (microsomal CLint) in series [1] (microsomes) turned out to be 14 µL/min/mg. In addition, in series [2], the hepatocyte CLint was found to be 23 µL/min/1e6 cells. In addition, the pH-dependent lipophilicity (logD) in series [3] (pH 7.4, LogD7.4) came to 1.86.
`CNC(=O)c1nc(-c2ccc(Cl)c(S(=O)(=O)Nc3cccc(F)c3F)c2)cnc1N`: in series [1] (liver microsomes), the microsomal CLint came to 51.3 µL/min/mg. The compound also came in with a hepatocyte CLint in series [2] of 19.9 µL/min/1e6 cells. The pH-dependent lipophilicity (logD) in series [3] (pH 7.4, LogD7.4) turned out to be 2.8.
For `CCC(CC)NC(=O)c1cnn(C)c1NS(=O)(=O)c1ccc(C)cc1` the same measures were 13 µL/min/mg, 27 µL/min/1e6 cells and 0.36.
The like results for `O=c1[nH]c2c(O)ccc([C@@H](O)CNCCc3cccc(CNCCCc4ccccc4)c3)c2s1` were, in that order, 9 µL/min/mg, 19 µL/min/1e6 cells and 1.11.
As to `O=c1[nH]c2c(O)ccc([C@@H](O)CNCCSCCCOCCc3ccccc3)c2s1`, the intrinsic clearance (microsomal CLint) in series [1] (microsomes) came out at 75 µL/min/mg. Besides, in series [2], the hepatocyte CLint is greater than 150 µL/min/1e6 cells. Moreover, the pH-dependent lipophilicity (logD) in series [3] (pH 7.4, LogD7.4) is 2.54.
`CCn1c(C)c(C(=O)O)c(-c2cccc(N3CCN(c4ccc(NS(=O)(=O)c5ccc(N[C@H](CCN6CCC(O)CC6)CSc6ccccc6)c(S(=O)(=O)C(F)(F)F)c5)cc4)CC3)c2)c1-c1ccc(Cl)cc1`: in series [1] (liver microsomes), the microsomal CLint was 15.1 µL/min/mg. For the same compound, in series [2], the intrinsic clearance (hepatocyte CLint) was determined as 17.4 µL/min/1e6 cells. For the same compound, the logD in series [3] (pH 7.4, LogD7.4) was 4.2.
In the case of `O=C(Nc1cccc(-c2nnn[nH]2)c1)c1cc(C(F)(F)F)cc2[nH]cnc12`, in series [1] (liver microsomes), the microsomal CLint was found to be 4.47 µL/min/mg. The intrinsic metabolic clearance (hepatocyte CLint) in series [2] amounted to 17.4 µL/min/1e6 cells. Moreover, in series [3] (pH 7.4, LogD7.4), the logD was 1.1.
